From patent US9517278B2, “Compound and photoacoustic imaging contrast medium containing the compound” (CANON KABUSHIKI KAISHA, priority 2012, dated 2016)

What was measured:
[1] = Evaluation of retentivity of compound in blood (fluorescent intensity of blood); format: in vivo, nude mouse
Procedure: In order to examine the retentivity of the compound in blood, various compounds were administered to veins of nude mouse tails and the amounts of compounds remaining in blood were evaluated. […] The method for producing the compound was as described in Example 1. In Table 4, k represents 1,000. For example, 5 k represents 5,000.
The retentivity of the compound in blood was evaluated as described below. Blood samples were taken from a mouse 1 hour, 3 hours, 1 day, 2 days, and 1 week after administration, and the fluorescent intensity of the blood was measured using IVIS (registered trademark) Imaging System 200 Series (produced by Caliper Life Science Inc.). The amount of administration to the mouse was 0.5 mg/kg in terms of the amount of dye. […] It is considered that access of serum protein to the near-infrared organic dye was limited by bonding the branched chain PEG to the near-infrared organic dye, accumulation into a liver was reduced and, as a result, the retentivity in blood was acquired.

[2] = test system: colon 26 cell line; assay: Tumor accumulation evaluated by photoacoustic imaging; format: in vivo; conditions: colon 26 tumor-bearing mouse, tail vein, 32 nmol as dye, 797 nm
Procedure: Photoacoustic signals were measured before a prepared compound was administered and at any given timing after administration by using the commercially available photoacoustic imaging apparatus (Nexus128, produced by Endra Inc.), so that three-dimensional reconfiguration data were obtained respectively. The photoacoustic intensity in a region of interest (ROI) was measured on the basis of the resulting three-dimensional reconfiguration data.
In the example according to the present invention, the amount of migration of the compound to a tumor mass was evaluated using a tumor-bearing model mouse. […] The fluorescent imaging was performed using IVIS (registered trademark) Imaging System and fluorescent intensity of a region of interest (ROI) of the tumor portion was measured.
In order to evaluate the tumor accumulation of the compound, a contrast medium was administered to a tail vein of a tumor-bearing mouse which had been transplanted a colon 26 cell line. […] Then, tumor accumulation 1 day after administration of the contrast medium into the tumor-bearing mouse was evaluated by photoacoustic imaging and fluorescence. […] Subsequently, the relative photoacoustic signal intensity 1 day after administration relative to before administration was calculated. The amount of accumulation into a tumor of the mouse was evaluated using fluorescence, as described below. […]

[3] = Tumor accumulation evaluated by fluorescence of tumor homogenate; format: in vivo; conditions: intravenous, 32 nmol in terms of the amount of dye, colon 26 tumor-bearing mouse, tail vein, 32 nmol as dye, 24 hours after administration
Procedure: The tumor accumulation was evaluated by an intraveneous injection of 100 microliters (13 nmol in terms of ICG) of various ICG-PEG aqueous solution into tumor-bearing mouse models, in which various cells were subcutaneously transplanted into BALB/c Slc-nu/nu mice. The mice were euthanized with a carbon dioxide gas 24 hours after the administration. Subsequently, each cancer tissue was enucleated. The cancer tissue was transferred to a plastic tube, 1% Triton-X100 aqueous solution 1.25 times the cancer tissue in weight was added, and a homogenate was produced using a plastic pestle. […] The amount of dye in the cancer tissue (% ID/g) was quantified by using IVIS (registered trademark) Imaging System 200 Series (produced by Caliper Life Science Inc.) and measuring the fluorescent intensity of the solution of the dye extracted from the tumor tissue and the standard solution for calibration in the state of the plastic tube.
In order to evaluate the tumor accumulation of the compound, a contrast medium was administered to a tail vein of a tumor-bearing mouse which had been transplanted a colon 26 cell line. […] Then, tumor accumulation 1 day after administration of the contrast medium into the tumor-bearing mouse was evaluated by photoacoustic imaging and fluorescence. […] The amount of accumulation into a tumor of the mouse was evaluated using fluorescence, as described below. […]

[4] = rat, ICG administered to the blood alone; cited from earlier work
[5] = in vivo; cited from earlier work
[6] = nude mouse, tail vein, 0.5 mg/kg as dye, ICG 1 day after administration = 1

CC1(C)C(/C=C/C=C/C=C/C=C2/N(CCCCS(=O)(=O)[O-])c3ccc4ccccc4c3C2(C)C)=[N+](CCCCS(=O)(=O)[O-])c2ccc3ccccc3c21.[Na+] [ICG, Indocyanine Green]
Retentivity in blood ([1]; in words): disappeared from the blood promptly
Relative concentration in blood, 1 week after [1, 6]: 0.72
Relative concentration in blood, 1 hour after [1, 6]: 36.7
Relative concentration in blood, 3 hours after [1, 6]: 19
Relative concentration in blood, 2 days after [1, 6]: 0.89
Relative concentration in blood, 1 day after ([1]; nude mouse, tail vein, 0.5 mg/kg as dye, ICG 1 day after administration = 1 (Table 6)): 1
Relative concentration in blood (1 day after administration) ([1]; nude mouse, tail vein, 0.5 mg/kg as dye, concentration of ICG in blood 1 day after administration = 1 (Table 5)): 1
Relative photoacoustic intensity (1 day after administration) [2]: 1
tissue uptake at 24 h [3]: 0.1 %ID/g
Time after administration until photoacoustic signal intensity is reduced to the level of the blood [4]: several tens of minutes
Half-life in blood [5]: about several minutes
